Data from the NIST ThermoML archive (doi:10.1021/je0497496).
“And” between values parts separate entries of the source, which are not always exact repeats. Identical values can stand only once. ± gives the expanded uncertainty stated by the source.

Conditions: for mass density: buoyancy; for vapor or sublimation pressure: Closed cell (Static) method

N#N [nitrogen]
Fluid (supercritical or subcritical phases)
Conditions | mass density [kg/m3]
233.02 K, 506.32 kPa | 7.36302 ± 0.025
233.02 K, 1007.1 kPa | 14.7253 ± 0.025
233.02 K, 2000.9 kPa | 29.5563 ± 0.026
233.02 K, 3001.4 kPa | 44.779 ± 0.027
233.02 K, 5030.2 kPa | 76.3292 ± 0.031
233.02 K, 5501 kPa | 83.7756 ± 0.034
233.03 K, 506.34 kPa | 7.36678 ± 0.025
233.03 K, 4002.6 kPa | 60.2496 ± 0.029
253.36 K, 3010.1 kPa | 40.8167 ± 0.026
253.36 K, 5651.9 kPa | 77.5333 ± 0.031
253.37 K, 158.12 kPa | 2.1053 ± 0.024
253.37 K, 1025.2 kPa | 13.7338 ± 0.025
253.37 K, 5051.9 kPa | 69.1481 ± 0.029
253.38 K, 158.09 kPa | 2.10982 ± 0.024
253.38 K, 2061.7 kPa | 27.8018 ± 0.025
253.38 K, 4007.1 kPa | 54.5977 ± 0.028
273.05 K, 1000.4 kPa | 12.3984 ± 0.024
273.06 K, 500.06 kPa | 6.18643 ± 0.024
273.06 K, 500.07 kPa | 6.19019 ± 0.024
273.06 K, 500.09 kPa | 6.18538 ± 0.024
273.06 K, 2000 kPa | 24.878 ± 0.024
273.06 K, 3000.1 kPa | 37.4313 ± 0.025
273.06 K, 4000 kPa | 50.0451 ± 0.026
273.06 K, 5000.4 kPa | 62.6679 ± 0.028
273.06 K, 5500 kPa | 68.9746 ± 0.029
293.02 K, 5015.1 kPa | 58.0251 ± 0.026
293.03 K, 109.97 kPa | 1.26716 ± 0.023
293.03 K, 1037 kPa | 11.9492 ± 0.023
293.03 K, 2014 kPa | 23.2508 ± 0.024
293.03 K, 3106.2 kPa | 35.9063 ± 0.024
293.03 K, 3996.5 kPa | 46.2267 ± 0.025
293.03 K, 5611.3 kPa | 64.8959 ± 0.027
293.04 K, 109.35 kPa | 1.25784 ± 0.023
313.12 K, 508.1 kPa | 5.46882 ± 0.023
313.12 K, 508.11 kPa | 5.46814 ± 0.023
313.12 K, 1000.3 kPa | 10.7709 ± 0.023
313.12 K, 1999.8 kPa | 21.5387 ± 0.023
313.12 K, 3999.9 kPa | 43.0379 ± 0.024
313.12 K, 5000.1 kPa | 53.7535 ± 0.025
313.13 K, 2999.7 kPa | 32.2955 ± 0.024
313.13 K, 5500 kPa | 59.0903 ± 0.026
333.12 K, 147.29 kPa | 1.48909 ± 0.023
333.12 K, 147.34 kPa | 1.48309 ± 0.023
333.12 K, 1049 kPa | 10.6026 ± 0.023
333.12 K, 2020.6 kPa | 20.4085 ± 0.023
333.12 K, 3039 kPa | 30.6553 ± 0.023
333.12 K, 4001.5 kPa | 40.3032 ± 0.024
333.12 K, 5029.1 kPa | 50.5504 ± 0.025
333.12 K, 5511.3 kPa | 55.3242 ± 0.025
353.31 K, 500.05 kPa | 4.76148 ± 0.022
353.31 K, 500.09 kPa | 4.76373 ± 0.022
353.31 K, 1001.8 kPa | 9.53854 ± 0.022
353.31 K, 4000.7 kPa | 37.8636 ± 0.023
353.32 K, 500.08 kPa | 4.76448 ± 0.022
353.32 K, 2000 kPa | 19.0116 ± 0.023
353.32 K, 3001.8 kPa | 28.4762 ± 0.023
353.32 K, 4999.9 kPa | 47.189 ± 0.024
353.32 K, 5500 kPa | 51.8318 ± 0.024

O [water]
Liquid
Conditions | mass density
273.62 K, 105.71 kPa | 999.859 ± 0.28 kg/m3
273.62 K, 1225.7 kPa | 1000.42 ± 0.28 kg/m3
273.63 K, 105.71 kPa | 999.82 ± 0.28 kg/m3
273.63 K, 2307.2 kPa | 1001.02 ± 0.28 kg/m3
273.63 K, 3781.6 kPa | 1001.68 ± 0.28 kg/m3
273.63 K, 4990.1 kPa | 1002.27 ± 0.28 kg/m3
292.94 K, 1063.5 kPa | 998.673 ± 0.28 kg/m3
292.94 K, 2097.6 kPa | 999.18 ± 0.28 kg/m3
292.94 K, 3109.3 kPa | 999.633 ± 0.28 kg/m3
292.94 K, 4139.9 kPa | 1000.06 ± 0.28 kg/m3 and 1000.08 ± 0.28 kg/m3
292.95 K, 109.3 kPa | 998.268 ± 0.28 kg/m3
302.91 K, 110.01 kPa | 995.77 ± 0.28 kg/m3
302.91 K, 2049.8 kPa | 996.571 ± 0.28 kg/m3
302.91 K, 4030.1 kPa | 997.451 ± 0.28 kg/m3
302.92 K, 1005.9 kPa | 996.106 ± 0.28 kg/m3
312.96 K, 345.05 kPa | 992.42 ± 0.28 kg/m3
312.96 K, 1195.1 kPa | 992.749 ± 0.28 kg/m3
312.96 K, 2093.1 kPa | 993.139 ± 0.28 kg/m3
312.96 K, 3064.5 kPa | 993.609 ± 0.28 kg/m3
312.96 K, 4141.2 kPa | 994.071 ± 0.28 kg/m3

O=C=O [carbon dioxide]
Fluid (supercritical or subcritical phases)
Conditions | mass density
233.06 K, 500.05 kPa | 12.0703 ± 0.033 kg/m3
233.06 K, 799.98 kPa | 20.1488 ± 0.034 kg/m3
233.07 K, 105.91 kPa | 2.43371 ± 0.031 kg/m3 and 2.42701 ± 0.031 kg/m3
233.07 K, 300.07 kPa | 7.05798 ± 0.032 kg/m3
243 K, 1000.7 kPa | 24.4253 ± 0.035 kg/m3
243.01 K, 300.03 kPa | 6.73594 ± 0.031 kg/m3
243.01 K, 500.04 kPa | 11.476 ± 0.032 kg/m3
243.01 K, 800 kPa | 19.0248 ± 0.033 kg/m3
243.01 K, 1200.7 kPa | 30.1422 ± 0.036 kg/m3
243.02 K, 100.02 kPa | 2.20055 ± 0.03 kg/m3
253.21 K, 500.06 kPa | 10.9367 ± 0.031 kg/m3
253.21 K, 1500.7 kPa | 36.7146 ± 0.037 kg/m3
253.22 K, 100.07 kPa | 2.116 ± 0.03 kg/m3
253.22 K, 100.08 kPa | 2.11111 ± 0.03 kg/m3
253.22 K, 1000.1 kPa | 23.0281 ± 0.033 kg/m3
253.22 K, 1800.9 kPa | 45.9785 ± 0.04 kg/m3
263.31 K, 1000.6 kPa | 21.8592 ± 0.032 kg/m3
263.32 K, 500.07 kPa | 10.4541 ± 0.03 kg/m3
263.32 K, 1500.1 kPa | 34.4562 ± 0.035 kg/m3
263.32 K, 2000.2 kPa | 48.7144 ± 0.039 kg/m3
263.32 K, 2200.2 kPa | 55.0401 ± 0.042 kg/m3
263.32 K, 2500 kPa | 65.4007 ± 0.046 kg/m3
263.33 K, 100.03 kPa | 2.02538 ± 0.029 kg/m3
273.56 K, 100.01 kPa | 1.94808 ± 0.028 kg/m3
273.56 K, 100.02 kPa | 1.95635 ± 0.028 kg/m3
273.56 K, 500.01 kPa | 10.0139 ± 0.029 kg/m3
273.56 K, 1000 kPa | 20.7952 ± 0.032 kg/m3
273.56 K, 2000.3 kPa | 45.5031 ± 0.035 kg/m3
273.56 K, 2500.6 kPa | 60.111 ± 0.042 kg/m3
273.56 K, 3000 kPa | 77.0441 ± 0.049 kg/m3
273.56 K, 3200.5 kPa | 84.7746 ± 0.053 kg/m3
273.56 K, 3401.2 kPa | 93.2811 ± 0.055 kg/m3
283.51 K, 3000.3 kPa | 70.8325 ± 0.045 kg/m3
283.51 K, 4000.8 kPa | 107.963 ± 0.071 kg/m3
283.52 K, 100.06 kPa | 1.8788 ± 0.028 kg/m3
283.52 K, 999.98 kPa | 19.8874 ± 0.03 kg/m3
283.52 K, 2000 kPa | 42.914 ± 0.034 kg/m3
283.52 K, 4200.9 kPa | 117.472 ± 0.073 kg/m3
293.08 K, 100.15 kPa | 1.81243 ± 0.028 kg/m3
293.08 K, 100.16 kPa | 1.8183 ± 0.028 kg/m3
293.08 K, 2000 kPa | 40.7832 ± 0.032 kg/m3
293.08 K, 3000.4 kPa | 66.2045 ± 0.038 kg/m3
293.08 K, 4000.2 kPa | 97.5691 ± 0.054 kg/m3
293.08 K, 5000.2 kPa | 140.798 ± 0.08 kg/m3
293.08 K, 5501.3 kPa | 173.325 ± 0.14 kg/m3
293.09 K, 1000.2 kPa | 19.1053 ± 0.029 kg/m3

Liquid
Conditions | mass density | vapor or sublimation pressure
233.07 K | 1116.54 ± 0.35 kg/m3 and 1116.44 ± 0.35 kg/m3 | 1000.7 ± 2.4 kPa and 1000.8 ± 2.4 kPa
243.01 K | 1076.52 ± 0.35 kg/m3 | 1420.4 ± 3 kPa and 1420.5 ± 3 kPa
253.22 K | 1031.59 ± 0.35 kg/m3 and 1031.49 ± 0.35 kg/m3 | 1974.2 ± 3.9 kPa and 1974.5 ± 3.9 kPa
263.31 K | 981.93 ± 0.35 kg/m3 | 2661.6 ± 5.1 kPa
263.32 K | 981.93 ± 0.35 kg/m3 | 2661.9 ± 5.1 kPa
273.55 K | 924.89 ± 0.36 kg/m3 | 3522.1 ± 6.6 kPa
273.56 K | 924.87 ± 0.36 kg/m3 | 3522.4 ± 6.6 kPa
283.51 K | 858.57 ± 0.39 kg/m3 | 4543.2 ± 8.4 kPa
283.52 K | 858.55 ± 0.39 kg/m3 | 4543.6 ± 8.4 kPa
293.08 K | 774.28 ± 0.41 kg/m3 | 5720.9 ± 10 kPa
293.09 K | 774.23 ± 0.41 kg/m3 | 5721.4 ± 10 kPa
